This is an account of results in patent US20260132158A1, “PHENYL OXY AMIDE KINASE INHIBITORS” (THE TRANSLATIONAL GENOMICS RESEARCH INSTITUTE, priority 2022, published 2026).

This assay deals with T1, RON Kinase (Homo sapiens, UniProt Q04912).
T1 construct: purchased Promega V8071
As to the kind of experiment: RON Kinase ADP Glo Assay. Format: biochemical. To be noted: ratio cMET IC50 / RON IC50. As to the method: RON Kinase ADP Glo Assay • Assay Buffer: 40 mM Tris-HCl, pH7.5, 20 mM MgCl2, 0.1 mg/mL BSA • RON Kinase+ADP-Glo™ Assay (Promega #: V8071) • Substrate: […] Axltide • Enzyme: 100 ng/μL RON Kinase • ATP: 10 mM • ADP-Glo™ Reagent • Kinase Detection Reagent • 384-well white assay plates Kinase assay was done by following instructions from the kit. Briefly, a ten-point serial dilution of compound was prepared at 5× in assay buffer with the final assay concentrations starting at 300 nM, 100 nM, 30 nM, 10 nM . . . 0 nM. Enzyme, substrate, and ATP were used at 25 ng, 2000 ng, and 25 µM, respectively. The assay plate was set up by mixing the components in a total reaction volume of 10 μL per well. The plate was centrifuged gently for 10 seconds and incubated at room temperature (RT) for 60 minutes in the dark. The ADP-Glo Reagent and kinase detection reagent were added and incubated as recommended. The reaction was quantified by measuring luminescence on the Perkin Elmer Envision plate reader.
Background: ADP-Glo first removes unused ATP, then detects ADP through luciferase.

T1 sequence (Q04912 25-1400): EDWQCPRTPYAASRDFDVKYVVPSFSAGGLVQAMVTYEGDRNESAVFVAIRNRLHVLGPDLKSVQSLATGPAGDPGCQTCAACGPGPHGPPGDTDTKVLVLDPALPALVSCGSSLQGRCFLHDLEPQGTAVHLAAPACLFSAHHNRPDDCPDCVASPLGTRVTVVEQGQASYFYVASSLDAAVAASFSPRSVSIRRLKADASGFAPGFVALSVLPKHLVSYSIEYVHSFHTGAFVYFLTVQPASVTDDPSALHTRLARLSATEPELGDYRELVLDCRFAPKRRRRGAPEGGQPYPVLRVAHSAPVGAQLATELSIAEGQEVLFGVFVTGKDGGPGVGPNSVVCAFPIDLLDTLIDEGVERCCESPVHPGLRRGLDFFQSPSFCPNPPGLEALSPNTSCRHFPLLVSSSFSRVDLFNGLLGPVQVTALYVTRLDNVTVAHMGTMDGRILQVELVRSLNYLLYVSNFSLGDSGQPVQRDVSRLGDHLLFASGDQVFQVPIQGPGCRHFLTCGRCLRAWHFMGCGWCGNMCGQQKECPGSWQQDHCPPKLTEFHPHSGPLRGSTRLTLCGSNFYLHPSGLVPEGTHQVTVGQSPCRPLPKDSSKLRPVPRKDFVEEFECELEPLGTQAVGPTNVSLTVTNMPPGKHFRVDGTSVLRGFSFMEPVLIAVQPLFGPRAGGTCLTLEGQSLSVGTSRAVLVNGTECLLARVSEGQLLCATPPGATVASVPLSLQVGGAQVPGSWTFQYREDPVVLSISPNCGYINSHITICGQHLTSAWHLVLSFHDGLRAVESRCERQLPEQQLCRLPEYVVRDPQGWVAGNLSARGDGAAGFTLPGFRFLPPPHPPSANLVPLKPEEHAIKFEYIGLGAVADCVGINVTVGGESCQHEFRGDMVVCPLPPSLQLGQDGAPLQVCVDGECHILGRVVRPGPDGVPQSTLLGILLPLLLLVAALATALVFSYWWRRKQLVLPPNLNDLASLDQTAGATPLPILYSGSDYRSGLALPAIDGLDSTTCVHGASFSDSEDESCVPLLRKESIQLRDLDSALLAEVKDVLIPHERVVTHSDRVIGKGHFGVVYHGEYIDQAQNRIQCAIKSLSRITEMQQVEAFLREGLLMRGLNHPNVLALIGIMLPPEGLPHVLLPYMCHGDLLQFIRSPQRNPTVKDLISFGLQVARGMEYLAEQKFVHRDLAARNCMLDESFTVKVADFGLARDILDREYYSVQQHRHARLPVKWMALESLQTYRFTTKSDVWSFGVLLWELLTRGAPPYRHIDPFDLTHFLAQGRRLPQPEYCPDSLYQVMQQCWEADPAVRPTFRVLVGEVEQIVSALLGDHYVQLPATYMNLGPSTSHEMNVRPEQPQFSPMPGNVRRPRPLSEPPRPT

Regarding `CC(C)Oc1cccc(Nc2nccc(Oc3ccc(NC(=O)c4cnn(-c5ccc(F)cc5)c4C(F)(F)F)cc3F)n2)c1` [Compound 35, N-(3-fluoro-4-((2-((3-isopropoxyphenyl)amino)pyrimidin-4-yl)oxy)phenyl)-1-(4-fluorophenyl)-5-(trifluoromethyl)-1H-pyrazole-4-carboxamide], the “Fold Selectivity (cMET/RON)” value was “+++ (represents a value greater than 3 up to 50)”.

`CP(C)(=O)c1cccc(Nc2nccc(Oc3ccc(NC(=O)c4cnn(-c5ccc(F)cc5)c4C(F)(F)F)cc3F)n2)c1` [Compound 26, N-(4-((2-((3-(dimethylphosphoryl)phenyl)amino)pyrimidin-4-yl)oxy)-3-fluorophenyl)-1-(4-fluorophenyl)-5-(trifluoromethyl)-1H-pyrazole-4-carboxamide]: the “Fold Selectivity (cMET/RON)” value is reported as “+++ (represents a value greater than 3 up to 50)”.

`CP(C)(=O)c1c(Oc2ccc(NC(=O)c3cnn(-c4ccc(F)cc4)c3C(F)(F)F)cc2F)ccnc1N` [Compound 17, N-(4-((2-amino-3-(dimethylphosphoryl)pyridin-4-yl)oxy)-3-fluorophenyl)-1-(4-fluorophenyl)-5-(trifluoromethyl)-1H-pyrazole-4-carboxamide]: the “Fold Selectivity (cMET/RON)” value is listed as “+++ (represents a value greater than 3 up to 50)”.

Regarding `Cn1cnc(-c2cc3ncnc(Oc4ccc(NC(=O)c5cnn(-c6ccc(F)cc6)c5C(F)(F)F)cc4F)c3s2)c1` [Compound 2, N-(3-fluoro-4-((6-(1-methyl-1H-imidazol-4-yl)thieno[3,2-d]pyrimidin-4-yl)oxy)phenyl)-1-(4-fluorophenyl)-5-(trifluoromethyl)-1H-pyrazole-4-carboxamide], the “Fold Selectivity (cMET/RON)” value is “+++ (represents a value greater than 3 up to 50)”.

Consider `Cn1cnc(-c2cc3nccc(Oc4ccc(NC(=O)c5cnn(-c6ccc(F)cc6)c5C(F)(F)F)cc4F)n3n2)c1` [Compound 8, N-(3-fluoro-4-((2-(1-methyl-1H-imidazol-4-yl)pyrazolo[1,5-a]pyrimidin-7-yl)oxy)phenyl)-1-(4-fluorophenyl)-5-(trifluoromethyl)-1H-pyrazole-4-carboxamide], for which the “Fold Selectivity (cMET/RON)” value was “+++ (represents a value greater than 3 up to 50)”.

For the compound `Cn1cc(-c2cc3nccc(Oc4ccc(NC(=O)c5cnn(-c6ccc(F)cc6)c5C(F)(F)F)cc4F)n3n2)cn1` [Compound 7, N-(3-fluoro-4-((2-(1-methyl-1H-pyrazol-4-yl)pyrazolo[1,5-a]pyrimidin-7-yl)oxy)phenyl)-1-(4-fluorophenyl)-5-(trifluoromethyl)-1H-pyrazole-4-carboxamide], the “Fold Selectivity (cMET/RON)” value is reported as “+++ (represents a value greater than 3 up to 50)”.

On to `Cn1cc(-c2c(Oc3ccc(NC(=O)c4cnn(-c5ccc(F)cc5)c4C(F)(F)F)cc3F)ccnc2N)cn1` [Compound 5, N-(4-((2-amino-3-(1-methyl-1H-pyrazol-4-yl)pyridin-4-yl)oxy)-3-fluorophenyl)-1-(4-fluorophenyl)-5-(trifluoromethyl)-1H-pyrazole-4-carboxamide], for which the “Fold Selectivity (cMET/RON)” value is listed as “+++ (represents a value greater than 3 up to 50)”.

For `O=C(Nc1ccc(Oc2ccnc3cc(Br)nn23)c(F)c1)c1cnn(-c2ccc(F)cc2)c1C(F)(F)F` [Compound 4, N-(4-((2-bromopyrazolo[1,5-a]pyrimidin-7-yl)oxy)-3-fluorophenyl)-1-(4-fluorophenyl)-5-(trifluoromethyl)-1H-pyrazole-4-carboxamide], the “Fold Selectivity (cMET/RON)” value is “++ (represents a value greater than 0.5 up to 3)”.

With `O=C(Nc1ccc(Oc2ccnc(Nc3cccc(N4CCOCC4)c3)n2)c(F)c1)c1cnn(-c2ccc(F)cc2)c1C(F)(F)F` [Compound 1, N-(3-fluoro-4-((2-((3-morpholinophenyl)amino)pyrimidin-4-yl)oxy)phenyl)-1-(4-fluorophenyl)-5-(trifluoromethyl)-1H-pyrazole-4-carboxamide], the “Fold Selectivity (cMET/RON)” value is “+++ (represents a value greater than 3 up to 50)”.
